Literature values, collected in article PMC11728000, “Antitumor Activity and Multi-Target Mechanism of Phenolic Schiff Bases Bearing Methanesulfonamide Fragments: Cell Cycle Analysis and a Molecular Modeling Study” (International Journal of Molecular Sciences, 2024).

Experiments:
[1] = tested on: CCRF-CEM; set-up: method as in https://dtp.cancer.gov/dtpstandard/dwindex/index.jsp; conditions: ref https://dtp.cancer.gov/dtpstandard/dwindex/index.jsp; cited from earlier work
[2] = tested on: MOLT-4; set-up: method as in https://dtp.cancer.gov/dtpstandard/dwindex/index.jsp; conditions: ref https://dtp.cancer.gov/dtpstandard/dwindex/index.jsp; cited from earlier work
[3] = tested on: SR; set-up: method as in https://dtp.cancer.gov/dtpstandard/dwindex/index.jsp; conditions: ref https://dtp.cancer.gov/dtpstandard/dwindex/index.jsp; cited from earlier work
[4] = tested on: EKVX; set-up: method as in https://dtp.cancer.gov/dtpstandard/dwindex/index.jsp; conditions: ref https://dtp.cancer.gov/dtpstandard/dwindex/index.jsp; cited from earlier work
[5] = tested on: HOP-62; set-up: method as in https://dtp.cancer.gov/dtpstandard/dwindex/index.jsp; conditions: ref https://dtp.cancer.gov/dtpstandard/dwindex/index.jsp; cited from earlier work
[6] = tested on: NCI-H23; set-up: method as in https://dtp.cancer.gov/dtpstandard/dwindex/index.jsp; conditions: ref https://dtp.cancer.gov/dtpstandard/dwindex/index.jsp; cited from earlier work
[7] = tested on: NCI-H322M; set-up: method as in https://dtp.cancer.gov/dtpstandard/dwindex/index.jsp; conditions: ref https://dtp.cancer.gov/dtpstandard/dwindex/index.jsp; cited from earlier work
[8] = tested on: KM12; set-up: method as in https://dtp.cancer.gov/dtpstandard/dwindex/index.jsp; conditions: ref https://dtp.cancer.gov/dtpstandard/dwindex/index.jsp; cited from earlier work
[9] = tested on: SW-620; set-up: method as in https://dtp.cancer.gov/dtpstandard/dwindex/index.jsp; conditions: ref https://dtp.cancer.gov/dtpstandard/dwindex/index.jsp; cited from earlier work
[10] = tested on: SF-539; set-up: method as in https://dtp.cancer.gov/dtpstandard/dwindex/index.jsp; conditions: ref https://dtp.cancer.gov/dtpstandard/dwindex/index.jsp; cited from earlier work
[11] = tested on: SNB-75; set-up: method as in https://dtp.cancer.gov/dtpstandard/dwindex/index.jsp; conditions: ref https://dtp.cancer.gov/dtpstandard/dwindex/index.jsp; cited from earlier work
[12] = tested on: LOX IMVI; set-up: method as in https://dtp.cancer.gov/dtpstandard/dwindex/index.jsp; conditions: ref https://dtp.cancer.gov/dtpstandard/dwindex/index.jsp; cited from earlier work
[13] = tested on: M14; set-up: method as in https://dtp.cancer.gov/dtpstandard/dwindex/index.jsp; conditions: ref https://dtp.cancer.gov/dtpstandard/dwindex/index.jsp; cited from earlier work
[14] = tested on: MDA-MB-435; set-up: method as in https://dtp.cancer.gov/dtpstandard/dwindex/index.jsp; conditions: ref https://dtp.cancer.gov/dtpstandard/dwindex/index.jsp; cited from earlier work
[15] = tested on: UACC-257; set-up: method as in https://dtp.cancer.gov/dtpstandard/dwindex/index.jsp; conditions: ref https://dtp.cancer.gov/dtpstandard/dwindex/index.jsp; cited from earlier work
[16] = tested on: UACC-62; set-up: method as in https://dtp.cancer.gov/dtpstandard/dwindex/index.jsp; conditions: ref https://dtp.cancer.gov/dtpstandard/dwindex/index.jsp; cited from earlier work
[17] = tested on: IGROV1; set-up: method as in https://dtp.cancer.gov/dtpstandard/dwindex/index.jsp; conditions: ref https://dtp.cancer.gov/dtpstandard/dwindex/index.jsp; cited from earlier work
[18] = tested on: OVCAR-5; set-up: method as in https://dtp.cancer.gov/dtpstandard/dwindex/index.jsp; conditions: ref https://dtp.cancer.gov/dtpstandard/dwindex/index.jsp; cited from earlier work
[19] = tested on: OVCAR-8; set-up: method as in https://dtp.cancer.gov/dtpstandard/dwindex/index.jsp; conditions: ref https://dtp.cancer.gov/dtpstandard/dwindex/index.jsp; cited from earlier work
[20] = tested on: SK-OV-3; set-up: method as in https://dtp.cancer.gov/dtpstandard/dwindex/index.jsp; conditions: ref https://dtp.cancer.gov/dtpstandard/dwindex/index.jsp; cited from earlier work
[21] = tested on: 786-0; set-up: method as in https://dtp.cancer.gov/dtpstandard/dwindex/index.jsp; conditions: ref https://dtp.cancer.gov/dtpstandard/dwindex/index.jsp; cited from earlier work
[22] = tested on: A498; set-up: method as in https://dtp.cancer.gov/dtpstandard/dwindex/index.jsp; conditions: ref https://dtp.cancer.gov/dtpstandard/dwindex/index.jsp; cited from earlier work
[23] = tested on: ACHN; set-up: method as in https://dtp.cancer.gov/dtpstandard/dwindex/index.jsp; conditions: ref https://dtp.cancer.gov/dtpstandard/dwindex/index.jsp; cited from earlier work
[24] = tested on: CAKI-1; set-up: method as in https://dtp.cancer.gov/dtpstandard/dwindex/index.jsp; conditions: ref https://dtp.cancer.gov/dtpstandard/dwindex/index.jsp; cited from earlier work
[25] = tested on: RXF 393; set-up: method as in https://dtp.cancer.gov/dtpstandard/dwindex/index.jsp; conditions: ref https://dtp.cancer.gov/dtpstandard/dwindex/index.jsp; cited from earlier work
[26] = tested on: TK-10; set-up: method as in https://dtp.cancer.gov/dtpstandard/dwindex/index.jsp; conditions: ref https://dtp.cancer.gov/dtpstandard/dwindex/index.jsp; cited from earlier work
[27] = tested on: UO-31; set-up: method as in https://dtp.cancer.gov/dtpstandard/dwindex/index.jsp; conditions: ref https://dtp.cancer.gov/dtpstandard/dwindex/index.jsp; cited from earlier work
[28] = tested on: PC-3; set-up: method as in https://dtp.cancer.gov/dtpstandard/dwindex/index.jsp; conditions: ref https://dtp.cancer.gov/dtpstandard/dwindex/index.jsp; cited from earlier work
[29] = tested on: DU-145; set-up: method as in https://dtp.cancer.gov/dtpstandard/dwindex/index.jsp; conditions: ref https://dtp.cancer.gov/dtpstandard/dwindex/index.jsp; cited from earlier work
[30] = tested on: MDA-MB-231/ATCC; set-up: method as in https://dtp.cancer.gov/dtpstandard/dwindex/index.jsp; conditions: ref https://dtp.cancer.gov/dtpstandard/dwindex/index.jsp; cited from earlier work
[31] = tested on: HS 578T; set-up: method as in https://dtp.cancer.gov/dtpstandard/dwindex/index.jsp; conditions: ref https://dtp.cancer.gov/dtpstandard/dwindex/index.jsp; cited from earlier work
[32] = tested on: CNS Cancer subpanel tumor cell lines; conditions: cited from earlier work; for GI50: read-out: GI50, subpanel average, ref https://dtp.cancer.gov/dtpstandard/dwindex/index.jsp; for CC50: read-out: LC50, subpanel average, ref https://dtp.cancer.gov/dtpstandard/dwindex/index.jsp; for TGI, subpanel average: ref https://dtp.cancer.gov/dtpstandard/dwindex/index.jsp
[33] = tested on: Melanoma subpanel tumor cell lines; conditions: cited from earlier work; for GI50: read-out: GI50, subpanel average, ref https://dtp.cancer.gov/dtpstandard/dwindex/index.jsp; for CC50: read-out: LC50, subpanel average, ref https://dtp.cancer.gov/dtpstandard/dwindex/index.jsp; for TGI, subpanel average: ref https://dtp.cancer.gov/dtpstandard/dwindex/index.jsp
[34] = tested on: Ovarian Cancer subpanel tumor cell lines; conditions: cited from earlier work; for GI50: read-out: GI50, subpanel average, ref https://dtp.cancer.gov/dtpstandard/dwindex/index.jsp; for CC50: read-out: LC50, subpanel average, ref https://dtp.cancer.gov/dtpstandard/dwindex/index.jsp; for TGI, subpanel average: ref https://dtp.cancer.gov/dtpstandard/dwindex/index.jsp
[35] = tested on: Renal Cancer subpanel tumor cell lines; conditions: cited from earlier work; for GI50: read-out: GI50, subpanel average, ref https://dtp.cancer.gov/dtpstandard/dwindex/index.jsp; for CC50: read-out: LC50, subpanel average, ref https://dtp.cancer.gov/dtpstandard/dwindex/index.jsp; for TGI, subpanel average: ref https://dtp.cancer.gov/dtpstandard/dwindex/index.jsp
[36] = tested on: Prostate Cancer subpanel tumor cell lines; conditions: cited from earlier work; for GI50: read-out: GI50, subpanel average, ref https://dtp.cancer.gov/dtpstandard/dwindex/index.jsp; for CC50: read-out: LC50, subpanel average, ref https://dtp.cancer.gov/dtpstandard/dwindex/index.jsp; for TGI, subpanel average: ref https://dtp.cancer.gov/dtpstandard/dwindex/index.jsp
[37] = tested on: 59 human cancer cell lines; conditions: full panel mean-graph midpoint, ref https://dtp.cancer.gov/dtpstandard/dwindex/index.jsp, cited from earlier work; for GI50: read-out: GI50 MG-MID; for CC50: read-out: LC50 MG-MID
[38] = tested on: NCI-H522; set-up: method as in https://dtp.cancer.gov/dtpstandard/dwindex/index.jsp; conditions: ref https://dtp.cancer.gov/dtpstandard/dwindex/index.jsp; cited from earlier work
[39] = tested on: MDA-MB-468; set-up: method as in https://dtp.cancer.gov/dtpstandard/dwindex/index.jsp; conditions: ref https://dtp.cancer.gov/dtpstandard/dwindex/index.jsp; cited from earlier work

In the case of `Cc1ccc(-c2cc(C(F)(F)F)nn2-c2ccc(S(N)(=O)=O)cc2)cc1` [Celecoxib, celecoxib], the GI50 [1] is given as 12.6 µM, the GI50 [2] is given as 15.8 µM and the GI50 [3] is given as 15.8 µM. For the same compound, the GI50 [4] was 19.9 µM, the GI50 [5] was 63.1 µM and the GI50 [6] was 15.8 µM. For the same compound, the GI50 [7] was 19.9 µM, the GI50 [8] was 15.8 µM and the GI50 [9] was 15.8 µM. For the same compound, the GI50 [10] was 19.9 µM, the GI50 [11] was 15.8 µM and the GI50 [12] was 19.9 µM. For the same compound, the GI50 [13] was 63.1 µM, the GI50 [14] was 15.8 µM and the GI50 [15] was 19.9 µM. For the same compound, the GI50 [16] was 15.8 µM, the GI50 [17] was 15.8 µM and the GI50 [18] was 19.9 µM. For the same compound, the GI50 [19] was 19.9 µM, the GI50 [20] was 19.9 µM and the GI50 [21] was 39.8 µM. The GI50 [22] was 15.8 µM, the GI50 [23] was 15.8 µM and the GI50 [24] was 19.9 µM. The GI50 [25] was 15.8 µM, the GI50 [26] was 19.9 µM and the GI50 [27] was 15.8 µM. The GI50 [28] was 12.6 µM, the GI50 [29] was 15.8 µM and the GI50 [30] was 15.8 µM. The GI50 [31] was 19.9 µM, the GI50 [32] was 17.2 µM and the CC50 [32] was 58.8 µM. For the same compound, the “TGI, subpanel average” value [32] was 31.62 µM, the GI50 [33] was 22.5 µM and the CC50 [33] was 64.3 µM. For the same compound, the “TGI, subpanel average” value [33] was 38.49 µM, the GI50 [34] was 17.1 µM and the CC50 [34] was 65.9 µM. The “TGI, subpanel average” value [34] was 34.20 µM, the GI50 [35] was 19.9 µM and the CC50 [35] was 61.2 µM. The “TGI, subpanel average” value [35] was 41.19 µM, the GI50 [36] was 14.2 µM and the CC50 [36] was 57 µM. For the same compound, the “TGI, subpanel average” value [36] was 28.37 µM, the “TGI MG-MID” value [37] was 34.0 µM and the GI50 [37] was 17.5 µM. For the same compound, the CC50 [37] was 63.3 µM.
For `C#Cc1cccc(Nc2ncnc3cc(OCCOC)c(OCCOC)cc23)c1` [Erlotinib, erlotinib], the GI50 [1] is listed as 50.1 µM, the GI50 [2] is listed as 25.1 µM and the GI50 [3] is listed as 10 µM. For the same compound, the GI50 [4] was 0.199 µM, the GI50 [5] was 15.8 µM and the GI50 [6] was 31.6 µM. For the same compound, the GI50 [7] was 0.1 µM, the GI50 [38] was 1 µM and the GI50 [8] was 79.4 µM. The GI50 [9] was 79.4 µM, the GI50 [10] was 19.9 µM and the GI50 [11] was 12.6 µM. For the same compound, the GI50 [12] was 6.31 µM, the GI50 [13] was 6.31 µM and the GI50 [14] was 19.9 µM. The GI50 [15] was 100 µM, the GI50 [16] was 3.16 µM and the GI50 [17] was 0.316 µM. For the same compound, the GI50 [18] was 7.94 µM, the GI50 [19] was 7.94 µM and the GI50 [20] was 0.5 µM. The GI50 [21] was 10 µM, the GI50 [22] was 2.51 µM and the GI50 [23] was 0.199 µM. For the same compound, the GI50 [24] was 0.199 µM, the GI50 [25] was 3.98 µM and the GI50 [26] was 0.251 µM. The GI50 [27] was 1 µM, the GI50 [28] was 39.8 µM and the GI50 [29] was 1.99 µM. For the same compound, the GI50 [30] was 6.31 µM, the GI50 [31] was 6.31 µM and the GI50 [39] was 0.126 µM. For the same compound, the GI50 [32] was 17 µM, the CC50 [32] was > 100 µM and the “TGI, subpanel average” value [32] was 82.11 µM. The GI50 [33] was 23.7 µM, the CC50 [33] was 93.3 µM and the “TGI, subpanel average” value [33] was 77.89 µM. For the same compound, the GI50 [34] was 5.52 µM, the CC50 [34] was 97.1 µM and the “TGI, subpanel average” value [34] was 74.41 µM. For the same compound, the GI50 [35] was 2.46 µM, the CC50 [35] was 89.2 µM and the “TGI, subpanel average” value [35] was 42.59 µM. The GI50 [36] was 20.9 µM, the CC50 [36] was > 100 µM and the “TGI, subpanel average” value [36] was “c (compounds showed values ≥ 100 μM)”. The “TGI MG-MID” value [37] was 66.3 µM, the GI50 [37] was 7.68 µM and the CC50 [37] was 95.6 µM.
